Where two headings read alike, the source gives them in different places.

For assay [1], the target named is T1, human recombinant JAK2 protein (Homo sapiens, UniProt O60674).
T1 construct: purchased Carna Biosciences 08-045
Description: JAK2 Inhibition Assay (HTRF kinase assay). It counts as biochemical. The note with it: human recombinant JAK2, 2.5 μM ATP substrate solution. The method, then:
The effect of the compounds of the present invention on the enzymatic activity of JAK2 was assessed by detecting the substrate phosphorylation level in a kinase reaction using the HTRF kinase assay detection kit (Cisbio, Cat. No. 62TK0PEC).
(§1) The experimental method is generally described below:
A reaction buffer contained the following components: an enzyme reaction buffer (1×), 5 mM MgCl2, 1 mM DTT and 0.01% Brij35 from the kit. A JAK2 kinase solution contained a human recombinant JAK2 protein (Carna Biosciences, 08-045) diluted in the reaction buffer to 0.15 ng/μL. A substrate reaction solution contained 2.5 μM ATP and 0.25 μM of a biotinylated tyrosine kinase substrate from the kit in the reaction buffer. A detection solution contained 0.1 ng/μL Eu^3+-labeled cage antibody (Cisbio, 61T66KLB) and 12.5 nM streptavidin-labeled XL665 (Cisbio, 610SAXLB) in the reaction buffer.
(§2) The test compound was dissolved in DMSO to 10 μM, followed by a serial 4-fold dilution with DMSO to a minimum concentration of 0.061 nM. Each concentration was further diluted 40-fold with the reaction buffer.
To a 384-well assay plate (Corning, 3674) were added 4 μL of compound solution and 2 μL of JAK2 kinase solution. The mixture was mixed and incubated at room temperature for 15 minutes, and then added with 4 μL of the substrate reaction solution. After further incubation at room temperature for 30 minutes, the reaction mixture was added with an equal volume of 10 μL detection solution and allowed to stand at room temperature for 30 minutes. An Envision plate reader (Perkin Elmer) was then used to measure the progress of the reaction at 620 nm and 665 nm. The ratio of absorbances at 665 nm and 620 nm was positively correlated with the degree of substrate phosphorylation, therefore the activity of JAK2 kinase was detected. In the experiment, the group without JAK2 kinase protein was treated as the 100% inhibition group, and the group with JAK2 kinase protein but not the test compound was treated as the 0% inhibition group. The percentage of inhibition on JAK2 kinase activity by the test compound was calculated using the following formula: Percentage of inhibition=100−100*(ratiocompound−ratio100% inhibition)/(ratio0% inhibition−ratio100% inhibition)
The IC50 value of the test compound was calculated from 8 concentration points using the XLfit softwere (ID Business Solutions Ltd., UK) by the following formula: Y=Bottom+(Top−Bottom)/(1+10^((log IC50−X)×slope factor))
Where Y was the percentage of inhibition, X was the logarithm of the concentration of the test compound. Bottom was the bottom plateau value of the S-shaped curve, Top was the top plateau value of the S-shaped curve, and slope factor was the slope coefficient of the curve.

The target of assay [2] is T2, human recombinant TYK2 protein (Homo sapiens, UniProt P29597).
T2 construct: purchased Carna Biosciences 08-147
T2 sequence (P29597 871-1187 limits assumed): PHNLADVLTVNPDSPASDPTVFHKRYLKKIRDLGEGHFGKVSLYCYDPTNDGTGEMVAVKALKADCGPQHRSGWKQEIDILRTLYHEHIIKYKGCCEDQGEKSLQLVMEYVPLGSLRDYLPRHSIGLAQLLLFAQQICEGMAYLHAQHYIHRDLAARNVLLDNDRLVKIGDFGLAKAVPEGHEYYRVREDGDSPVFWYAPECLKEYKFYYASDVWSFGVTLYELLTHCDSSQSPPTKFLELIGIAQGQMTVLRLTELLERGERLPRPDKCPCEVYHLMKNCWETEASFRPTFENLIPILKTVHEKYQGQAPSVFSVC
Briefly: TYK2 Inhibition Assay (HTRF kinase assay). The assay is classed as biochemical. The note with it: human recombinant TYK2, 11.25 μM ATP substrate solution. The method, then:
The effect of the compounds of the present invention on the enzymatic activity of TYK2 was assessed by detecting the substrate phosphorylation level in a kinase reaction using the HTRF kinase assay detection kit (Cisbio, Cat. No. 62TK0PEC).
as §1
A reaction buffer contained the following components: an enzyme reaction buffer (1×), 5 mM MgCl2 mM DTT and 0.01% Brij35 from the kit. A TYK2 kinase solution contained human recombinant TYK2 protein (Carna Biosciences, 08-147) diluted in the reaction buffer to 0.25 ng/μL. A substrate reaction solution contained 11.25 μM ATP and 0.5 μM of a biotinylated tyrosine kinase substrate from the kit in the reaction buffer. A detection solution contained 0.1 ng/μL Eu^3+-labeled cage antibody (Cisbio, 61T66KLB) and 25 nM streptavidin-1 added XL665 (Cisbio, 610SAXLB) in the reaction buffer.
as §2
To a 384-well assay plate (Corning, 3674) were added 4 μL of compound solution and 2 μL of TYK2 kinase solution. The mixture was mixed and incubated at room temperature for 15 minutes, and then added with 4 μL of the substrate reaction solution. After further incubation at room temperature for 40 minutes, the reaction mixture was added with an equal volume of 10 μL detection solution and allowed to stand at room temperature for 30 minutes. An Envision plate reader (Perkin Elmer) was then used to measure the progress of the reaction at 620 nm and 665 nm. The ratio of absorbances at 665 nm and 620 nm was positively correlated with the degree of substrate phosphorylation, therefore the activity of TYK2 kinase was detected. In the experiment, the group without TYK2 kinase protein was treated as the 100% inhibition group, and the group with TYK2 kinase protein but not the test compound was treated as the 0% inhibition group. The percentage of inhibition on TYK2 kinase activity by the test, compound was calculated using the following formula: Percentage of inhibition=100−100*(ratiocompound−ratio100% inhibition)/(ratio0% inhibition−ratio100% inhibition)
The IC50 value of the test compound was calculated from 8 concentration points using the XLfit software (ID Business Solutions Ltd., UK) by the following formula: Y=Bottom+(Top−Bottom)/(1+10^((log IC50−X)slope factor))
(§3) Where Y was the percentage of inhibition, X was the logarithm of the concentration of the test compound, Bottom was the bottom plateau value of the S-shaped curve, Top was the top plateau value of the S-shaped curve, and slope factor was the slope coefficient of the curve.

The subject of assay [3] is IL-12-induced IFN-γ secretion in NK92 cells. Briefly: Inhibition of IL-12-induced IFN-γ Secretion in NK92 Cells (ELISA). The assay is classed as cell-based, human. The note with it: 24 hours incubation, 8 concentration points, read-out: IC50 (NK92_IL12/IFNγ). The procedure: Inhibition of IL-12-induced IFN-γ Secretion in NK92 Cells
The effect of the compounds of the present invention on IFN-γ secretion induced by IL-12 in NK92 cells was evaluated by an enzyme-linked immunosorbent assay (ELISA).
IL-12 receptor is mainly expressed in activated T-cells, NK cells (NK92 is a NK cell line), DC cells, and B-cells. When binding to IL-12, it activates JAK2/TYK2 signal transduction pathway within NK cells and T lymphocytes, thereby inducing secretion of IFN-γ.
as §1
The test compound was dissolved in DMSO to 2.5 mM, followed by a serial 4-fold dilution with DMSO to a minimum concentration of […]. Each concentration was further diluted 50-fold with an FBS-free MEMα medium (Gibco, 12561-056).
NK92 cells (Nanjing Cobioer, CBP60980) were cultured in a complete MEMα medium containing 12.5% FBS (Ausbian, VS500T), 12.5% horse serum (Gibco, 16050-122), 0.02 mM folic acid (Sigma, F8758), 0.2 mM inositol (Sigma, 17850), 0.55 mM β-mercaptoethanol (Gibco, 21985-023), 200 U/mL IL-2 (R&D Systems, 202-1L), and 100 U/mL penicillin (Thermofisher, 15140122). When covering 80-90% of the culture container surface, the cells were dispersed and plated on a 96-well plate (Thermofisher, 167425) with 100,000 cells per well (80 μL of the complete MEMα medium without IL-2). The 96-well plate was then incubated overnight in a 37° C./5% CO2 incubator.
After overnight incubation, 10 μL of the test compound and 10 μL of 50 ng/mL IL-12 (R & D Systems, 219-1L) were added to each well and mix gently, and the 96-well plate was incubated in the 37° C./5% CO2 incubator for additional 24 hours. The plate as centrifuged at 800 rpm for 10 minutes at room temperature and 50 μL of the supernatant from each well was transferred to another 96-well plate (Sigma, CLS3695) coated with anti-IFN-γ antibody. The amount of IFN-γ secretion was detected following the instruction from the Human IFN-γ DuoSet ELISA kit (R & D Systems, DY285B). In the experiment, the group with IL-12 and the test compound being replaced with the MEMα medium was the non-stimulated control group (100% inhibition), and the group with IL-12 and 0.2% DMSO was the stimulated group (0% inhibition). The percentage of inhibition on IL-12 induced IFN-γ secretion in NK-92 cells by the test compound was calculated using the following formula: Percentage of inhibition=100−100*(signalcompound−signalnon-stimulated control)/(signalstimulated control−signalnon-stimulated control)
The IC50 value of the test compound was calculated front 8 concentration points using the XLfit software (ID Business Solutions Ltd., UK) by the following formula: Y=Bottom+(Top−Bottom)/(1+10^((log IC50−X)×slope factor))
as §3

T1 sequence (O60674 826-1132 limits assumed): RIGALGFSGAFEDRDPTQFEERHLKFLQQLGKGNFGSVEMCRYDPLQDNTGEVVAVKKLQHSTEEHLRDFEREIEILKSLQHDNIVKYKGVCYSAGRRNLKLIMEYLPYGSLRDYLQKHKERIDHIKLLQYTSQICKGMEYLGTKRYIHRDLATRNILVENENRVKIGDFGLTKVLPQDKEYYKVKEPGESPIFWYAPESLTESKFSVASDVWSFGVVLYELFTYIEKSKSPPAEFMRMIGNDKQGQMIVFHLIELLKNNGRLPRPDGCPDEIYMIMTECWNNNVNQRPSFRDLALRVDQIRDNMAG

On to `Cc1cnc(Nc2cnn(C)c2)nc1N1C[C@@H]2CN(C(=O)CC#N)C[C@]2(C)C1` (racemic) [Compound 71, cis-3-(3a-methyl-5-(5-methyl-2-((1-methyl-1H-pyrazol-4-yl)amino)pyrimidin-4-yl)hexahydropyrrolo[3,4-c]pyrrol-2(1H)-yl)-3-oxopropanenitrile], for which the results for the IC50 in assay [1], in assay [2] and in assay [3] (Homo sapiens) were 3.3 nM, 1.2 nM and 3540 nM, respectively.
For `Cn1cc(Nc2ncc(Cl)c(N3C[C@]4(C)CN(C(=O)C5(O)CC5)C[C@]4(C)C3)n2)cn1` [Compound 43, ((3aR,6aS)-5-(5-chloro-2-((1-methyl-1H-pyrazol-4-yl)amino)pyrimidin-4-yl)-3a,6a-dimethylhexahydropyrrolo[3,4-c]pyrrol-2(1H)-yl)(1-hydroxycyclopropyl)methanone], the IC50 in assay [1] stood at 18 nM; in assay [2], 4.5 nM; in assay [3] (Homo sapiens), 3390 nM.
On the same counts, the results for `C[C@H](O)Cn1cc(Nc2ncc(Cl)c(N3C[C@]4(C)CN(C(=O)C5CC5)C[C@]4(C)C3)n2)cn1` [Compound 18] are 3.5 nM, 1.6 nM and 617 nM.
As to `Cn1cc(Nc2ncc(Cl)c(N3C[C@@]4(C)CN(CC#N)C(=O)[C@@]4(C)C3)n2)cn1` (racemic) [Compound 92, cis-2-(5-(5-Chloro-2-((1-methyl-1H-pyrazol-4-yl)amino)pyrimidin-4-yl)-3a,6a-dimethyl-1-oxohexahydropyrrolo[3,4-c]pyrrol-2(1H)-yl)acetonitrile], the IC50 is 4.1 nM in assay [1], 1.1 nM in assay [2] and 398 nM in assay [3] (Homo sapiens).
In the case of `CNC(=O)c1ccc(Nc2ncc(Cl)c(N3C[C@]4(C)CN(C(=O)C5CC5)C[C@]4(C)C3)n2)cn1` [Compound 51, 5-((5-chloro-4-((3aR,6aS)-5-(cyclopropanecarbonyl)-3a,6a-dimethylhexahydropyrrolo[3,4-c]pyrrol-2(1H)-yl)pyrimidin-2-yl)amino)-N-methylpicolinamide], the values for the IC50 in assay [1], in assay [2] and in assay [3] (Homo sapiens) were 7.3 nM, 2.7 nM and 597 nM, respectively.
On to “cyclopropyl((3aR,6aS)-3a,6a-dimethyl-5-(5-methyl-2((1-methyl-1H-pyrazol-4-yl)amino)pyriraidin-4-yl)hexahydropyrrolo[3,4-c]pyrrol-2(1H)-yl)methanone [Compound 24]”, for which the results for the IC50 in assay [1], in assay [2] and in assay [3] were 20 nM, 4.1 nM and 1070 nM, respectively.
`Cn1cc(Nc2ncc(Cl)c(N3C[C@]4(C)CN(CC5CC5)C[C@]4(C)C3)n2)cn1` [Compound 84, 5-chloro-4-((3aR,6aS)-5-(cyyclopropylmethyl)-3a,6a-dimethylhexahydropyrrolo[3,4-c]pyrrol-2(1H)-yl)-N-(1-methyl-1H-pyrazol-4-yl)pyrimidin-2-amine]: the results for the IC50 in assay [1], in assay [2] and in assay [3] (Homo sapiens) were 477 nM, 186 nM and 8750 nM, respectively.
Consider `CN1CCN(C(=O)c2ccc(Nc3ncc(Cl)c(N4C[C@]5(C)CN(C(=O)C6CC6)C[C@]5(C)C4)n3)cn2)CC1` [Compound 59, ((3aR,6aS)-5-(5-chloro-2-((6-(4-rnethylpiperazine-1-carbonyl)pyridin-3-yl)amino)pyrimidin-4-yl)-3a,6a-dimethylhexahydropyrrolo[3,4-c]pyrrol-2(1H)-yl)(cyclopropyl)methanone], for which the IC50 in assay [1] was 5.1 nM; in assay [2] it was 5 nM; in assay [3] (Homo sapiens), 2390 nM.
In the case of `COCC(=O)N1C[C@@]2(C)CN(c3nc(Nc4cnn(C)c4)ncc3Cl)C[C@@]2(C)C1` [Compound 37, 1-((3aR,6aS)-5-(5-chloro-2-((1-methyl-1H-pyrazol-4-yl)amino)pyrimidin-4-yl)-3a,6a-dimethylhexahydropyrrolo[3,4-c]pyrrol-2(1H)-yl)-2-methoxyethan-1-one], the results for the IC50 in assay [1], in assay [2] and in assay [3] (Homo sapiens) were 15 nM, 12 nM and 2100 nM, respectively.
